Data on two compounds can be found in US10301297B2, “Substituted nicotinimide inhibitors of BTK and their preparation and use in the treatment of cancer, inflammation and autoimmune disease” (GUANGZHOU INNOCARE PHARMA TECH CO., LTD., priority 2013, dated 2019).

One test deals with BLK (Homo sapiens (Human), UniProt P51451). Description: kinase binding screen (affinity beads, qPCR readout) at 1000 nM. The note with it: read-out: % Inhibition @ 1000 nM. On the technique in general: Quantitative PCR measures a nucleic acid by following its amplification.
For another test, the target named is FGR (Homo sapiens (Human), UniProt P09769). Described as above. The note with it: read-out: % Inhibition @ 1000 nM.
The target in another test is YES (Homo sapiens (Human), UniProt P07947). The test is described as above. Particulars: read-out: % Inhibition @ 1000 nM.
The next test has as its target HCK (Homo sapiens (Human), UniProt P08631). Described as above. Particulars: read-out: % Inhibition @ 1000 nM.
The target in another test is FYN (Homo sapiens (Human), UniProt P06241). The test is described as above. The note with it: read-out: % Inhibition @ 1000 nM.
A further test addresses LCK (Homo sapiens (Human), UniProt P06239). Described as above. The note with it: read-out: % Inhibition @ 1000 nM.
The target of the next test is LYN (Homo sapiens (Human), UniProt P07948). The test is described as above. Particulars: read-out: % Inhibition @ 1000 nM.
The target in test [1] is T1, BTK (Homo sapiens (Human), UniProt Q06187). Described as above.
The next test addresses SRC (Homo sapiens (Human), UniProt P12931). The test is described as above.
The next test concerns the target EGFR (Homo sapiens (Human), UniProt P00533). The test is described as above. The note with it: read-out: % Inhibition @ 1000 nM.
The target in test [2] is T1, BTK. Description: ADP-Glo Kinase biochemical assay, IC50 determination of BTK inhibitors. Particulars: head-to-head assays. How it is done:
Biological Properties: IC50 Determination of BTK Inhibitors in ADP-Glo Kinase Biochemical Assay
• Enzyme concentration: 8 ng/5 ul. • ATP concentration: 50 uM • Substrate (peptide) concentration: 0.2 mg/ml. • Reaction buffer composition: 40 mM Tris-HCl pH7.5, 10 mM MgCl2, 2 mM MnCl2, 0.1 mg/mL BSA, 0.05 mM DTT. • Test compound concentration: DMSO≤0.5%. Methods: Compound Dosage Gradient Solution Preparation: […]
1× and 2× assay buffer were made at first. BTK kinase was diluted with 1× assay buffer but substrate was diluted with 2× assay buffer. 1 ul of diluted compound was transferred into 384-well assay plate, and then 2.0 ul of enzyme solution was added, and spun at 2000 rpm for 1 min. This mixture was incubated at 24° C. for 30 mins. 2 ul of peptide substrate/ATP mixture was added into the assay plate to start the reaction. The mixture was mixed thoroughly and then the 384-well plate was spun and incubated at 24° C. for 60 mins. 5.0 ul of ADP-Glo Reagent was added to stop the kinase activity and deplete the ATP unconsumed, and the plate was mixed thoroughly and incubated at 24° C. for 40 min. Then, 10.0 ul of Kinase Detection reagent was added, and the plate was centrifuged and then kept at 24° C. for 30 min. The luminescence signal was read on Envision. […]
All data was analyzed with IDBS XLfit5 software (ID Business Solutions Ltd., UK).

Molecules are shown by their SMILES.

T1 sequence (Q06187 whole entry): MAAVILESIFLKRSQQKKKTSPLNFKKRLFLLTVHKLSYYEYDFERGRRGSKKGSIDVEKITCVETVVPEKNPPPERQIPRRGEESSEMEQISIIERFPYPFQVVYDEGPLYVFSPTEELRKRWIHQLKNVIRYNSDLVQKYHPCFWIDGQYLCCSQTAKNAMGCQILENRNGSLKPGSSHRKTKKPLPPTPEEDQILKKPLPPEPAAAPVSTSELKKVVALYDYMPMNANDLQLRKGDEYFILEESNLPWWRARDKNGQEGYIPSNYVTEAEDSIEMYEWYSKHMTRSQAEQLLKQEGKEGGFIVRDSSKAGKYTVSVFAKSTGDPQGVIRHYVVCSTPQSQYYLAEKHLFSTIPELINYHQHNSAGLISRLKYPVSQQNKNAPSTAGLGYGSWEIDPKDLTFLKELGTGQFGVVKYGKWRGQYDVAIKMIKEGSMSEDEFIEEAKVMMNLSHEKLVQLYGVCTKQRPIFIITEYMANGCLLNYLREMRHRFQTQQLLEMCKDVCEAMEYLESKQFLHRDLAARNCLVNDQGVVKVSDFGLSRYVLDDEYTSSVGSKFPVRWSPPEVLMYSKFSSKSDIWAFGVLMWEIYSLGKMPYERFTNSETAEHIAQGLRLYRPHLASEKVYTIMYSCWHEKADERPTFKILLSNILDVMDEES
FYN, sequence (P06241 whole entry): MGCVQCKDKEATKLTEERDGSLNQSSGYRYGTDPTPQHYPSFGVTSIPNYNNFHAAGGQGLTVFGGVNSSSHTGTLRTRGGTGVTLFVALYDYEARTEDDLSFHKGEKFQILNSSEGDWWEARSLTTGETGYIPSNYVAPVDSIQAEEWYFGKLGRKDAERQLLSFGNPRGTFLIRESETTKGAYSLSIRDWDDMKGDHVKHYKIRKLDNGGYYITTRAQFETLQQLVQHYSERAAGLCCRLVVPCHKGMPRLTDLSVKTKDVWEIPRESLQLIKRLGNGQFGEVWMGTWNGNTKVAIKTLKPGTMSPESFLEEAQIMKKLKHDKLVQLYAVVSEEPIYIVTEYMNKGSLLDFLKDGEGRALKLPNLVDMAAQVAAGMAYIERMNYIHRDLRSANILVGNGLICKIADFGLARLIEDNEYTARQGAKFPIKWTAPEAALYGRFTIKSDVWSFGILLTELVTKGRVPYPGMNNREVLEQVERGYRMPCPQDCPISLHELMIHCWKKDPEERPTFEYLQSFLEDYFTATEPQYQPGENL
BLK, sequence (P51451 whole entry): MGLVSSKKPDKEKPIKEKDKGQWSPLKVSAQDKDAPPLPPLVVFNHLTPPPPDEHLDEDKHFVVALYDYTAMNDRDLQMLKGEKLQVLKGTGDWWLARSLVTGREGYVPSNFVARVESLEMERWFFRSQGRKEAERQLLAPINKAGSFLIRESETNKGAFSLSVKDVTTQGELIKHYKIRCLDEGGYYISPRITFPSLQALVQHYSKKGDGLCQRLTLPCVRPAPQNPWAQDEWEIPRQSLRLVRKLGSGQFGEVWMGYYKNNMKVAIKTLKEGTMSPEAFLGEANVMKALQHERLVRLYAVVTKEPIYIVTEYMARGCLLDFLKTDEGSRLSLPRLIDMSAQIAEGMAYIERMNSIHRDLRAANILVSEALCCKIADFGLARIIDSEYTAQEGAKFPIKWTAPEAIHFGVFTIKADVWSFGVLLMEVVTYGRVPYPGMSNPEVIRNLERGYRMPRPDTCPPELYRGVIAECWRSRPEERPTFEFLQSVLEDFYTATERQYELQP
HCK, sequence (P08631 whole entry): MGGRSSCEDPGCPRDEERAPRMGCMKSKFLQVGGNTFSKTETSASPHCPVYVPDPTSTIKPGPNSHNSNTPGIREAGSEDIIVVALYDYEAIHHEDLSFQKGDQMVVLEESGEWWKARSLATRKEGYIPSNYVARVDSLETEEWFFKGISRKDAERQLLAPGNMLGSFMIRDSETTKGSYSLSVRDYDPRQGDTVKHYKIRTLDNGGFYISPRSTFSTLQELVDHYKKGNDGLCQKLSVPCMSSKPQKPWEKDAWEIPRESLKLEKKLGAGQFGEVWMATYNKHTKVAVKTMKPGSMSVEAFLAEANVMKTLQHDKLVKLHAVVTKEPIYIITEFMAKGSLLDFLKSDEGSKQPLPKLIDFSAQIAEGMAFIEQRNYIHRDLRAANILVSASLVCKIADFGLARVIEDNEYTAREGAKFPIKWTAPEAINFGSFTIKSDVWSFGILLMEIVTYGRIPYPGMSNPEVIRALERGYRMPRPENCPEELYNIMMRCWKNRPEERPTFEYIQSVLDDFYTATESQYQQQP
FGR, sequence (P09769 whole entry): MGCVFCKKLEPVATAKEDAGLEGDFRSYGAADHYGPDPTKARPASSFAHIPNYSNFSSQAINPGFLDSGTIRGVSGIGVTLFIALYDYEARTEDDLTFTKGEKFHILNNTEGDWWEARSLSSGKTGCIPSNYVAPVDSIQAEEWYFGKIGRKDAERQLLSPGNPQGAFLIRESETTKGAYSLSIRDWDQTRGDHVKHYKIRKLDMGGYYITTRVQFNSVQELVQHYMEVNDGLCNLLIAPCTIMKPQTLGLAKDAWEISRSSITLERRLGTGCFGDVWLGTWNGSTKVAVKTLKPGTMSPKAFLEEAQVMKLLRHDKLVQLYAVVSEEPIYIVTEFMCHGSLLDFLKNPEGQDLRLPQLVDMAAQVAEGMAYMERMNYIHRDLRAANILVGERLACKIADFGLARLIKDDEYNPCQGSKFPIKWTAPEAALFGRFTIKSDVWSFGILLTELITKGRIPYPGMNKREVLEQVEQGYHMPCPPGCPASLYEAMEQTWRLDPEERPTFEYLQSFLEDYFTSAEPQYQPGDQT
LYN, sequence (P07948 whole entry): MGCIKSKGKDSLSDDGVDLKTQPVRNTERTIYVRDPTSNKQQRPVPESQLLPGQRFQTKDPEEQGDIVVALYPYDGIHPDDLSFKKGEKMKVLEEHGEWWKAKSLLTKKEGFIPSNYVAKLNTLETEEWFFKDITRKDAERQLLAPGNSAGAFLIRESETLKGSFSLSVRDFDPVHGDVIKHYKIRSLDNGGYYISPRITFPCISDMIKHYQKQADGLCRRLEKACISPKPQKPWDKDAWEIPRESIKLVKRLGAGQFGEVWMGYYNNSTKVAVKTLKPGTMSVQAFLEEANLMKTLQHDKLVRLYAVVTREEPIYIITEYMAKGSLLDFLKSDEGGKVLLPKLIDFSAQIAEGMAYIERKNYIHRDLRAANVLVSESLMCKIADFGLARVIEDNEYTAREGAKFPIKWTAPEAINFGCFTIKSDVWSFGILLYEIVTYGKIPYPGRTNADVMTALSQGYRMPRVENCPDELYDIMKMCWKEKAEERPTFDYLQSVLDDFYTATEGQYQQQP
SRC, sequence (P12931 whole entry, looked up): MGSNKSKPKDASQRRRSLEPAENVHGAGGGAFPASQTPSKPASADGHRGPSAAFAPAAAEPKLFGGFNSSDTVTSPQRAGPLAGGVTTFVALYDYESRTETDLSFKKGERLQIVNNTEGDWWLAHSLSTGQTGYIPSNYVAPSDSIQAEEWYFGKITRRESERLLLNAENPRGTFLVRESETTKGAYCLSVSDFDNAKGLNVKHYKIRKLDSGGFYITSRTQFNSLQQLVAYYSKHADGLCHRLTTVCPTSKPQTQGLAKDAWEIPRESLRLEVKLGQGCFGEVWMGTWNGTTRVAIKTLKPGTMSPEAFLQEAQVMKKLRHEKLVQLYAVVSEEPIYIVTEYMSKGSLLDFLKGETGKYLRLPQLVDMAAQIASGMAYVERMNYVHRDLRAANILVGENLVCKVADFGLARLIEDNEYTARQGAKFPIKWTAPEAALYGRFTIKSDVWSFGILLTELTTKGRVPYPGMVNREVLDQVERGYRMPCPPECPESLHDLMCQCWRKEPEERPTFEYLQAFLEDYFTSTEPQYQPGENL
LCK, sequence (P06239 whole entry): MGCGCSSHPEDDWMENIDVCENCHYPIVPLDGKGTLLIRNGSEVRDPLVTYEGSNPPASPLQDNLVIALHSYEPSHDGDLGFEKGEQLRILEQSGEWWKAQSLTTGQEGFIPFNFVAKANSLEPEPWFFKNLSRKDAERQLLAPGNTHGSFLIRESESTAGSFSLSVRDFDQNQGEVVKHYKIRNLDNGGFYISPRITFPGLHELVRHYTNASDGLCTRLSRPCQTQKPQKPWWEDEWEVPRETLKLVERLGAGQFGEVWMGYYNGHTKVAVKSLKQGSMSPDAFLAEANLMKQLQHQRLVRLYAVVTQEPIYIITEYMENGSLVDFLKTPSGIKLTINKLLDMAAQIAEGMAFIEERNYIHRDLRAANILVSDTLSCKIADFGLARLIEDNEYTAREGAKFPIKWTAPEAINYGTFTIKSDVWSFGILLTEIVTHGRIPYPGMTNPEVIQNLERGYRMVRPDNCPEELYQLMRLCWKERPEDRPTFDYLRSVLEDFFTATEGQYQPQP
YES, sequence (P07947 whole entry): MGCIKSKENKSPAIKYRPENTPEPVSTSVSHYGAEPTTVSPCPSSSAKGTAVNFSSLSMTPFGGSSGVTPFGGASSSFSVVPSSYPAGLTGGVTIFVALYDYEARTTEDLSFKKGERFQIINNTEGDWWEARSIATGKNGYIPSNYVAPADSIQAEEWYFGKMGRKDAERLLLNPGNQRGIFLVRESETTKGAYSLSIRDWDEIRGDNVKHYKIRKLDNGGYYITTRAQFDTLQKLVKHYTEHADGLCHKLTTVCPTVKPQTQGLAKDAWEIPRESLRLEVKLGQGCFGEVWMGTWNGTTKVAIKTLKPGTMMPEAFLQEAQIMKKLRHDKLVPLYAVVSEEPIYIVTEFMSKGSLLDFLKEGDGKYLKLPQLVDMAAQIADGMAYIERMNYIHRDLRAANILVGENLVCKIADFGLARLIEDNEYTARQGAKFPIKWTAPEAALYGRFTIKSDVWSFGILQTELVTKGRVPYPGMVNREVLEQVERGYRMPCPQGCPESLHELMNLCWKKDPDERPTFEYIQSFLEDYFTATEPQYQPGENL

In general, inhibition refers to the drop in the measured response relative to a control, in per cent. For the compound `C=CC(=O)N1CCC(c2ccc(C(N)=O)c(-c3ccc(Oc4ccccc4)cc3)n2)CC1` [Example 3, 6-(1-acryloylpiperidin-4-yl)-2-(4-phenoxyphenyl)nicotinamide], the inhibition at 1 µM amounted to 51% on BLK; 0% on FGR; 8% at YES; 0% on HCK; 0% on FYN; 11% on LCK. Also, at LYN, the inhibition at 1 µM is 3%.
Take `C=CC(=O)N1CCN(c2ccc(C(N)=O)c(-c3ccc(Oc4ccccc4)cc3)n2)CC1` [Example 5, 6-(4-acryloylpiperazin-1-yl)-2-(4-phenoxyphenyl)nicotinamide]: the inhibition at 1 µM on BLK was found to be 46%; on BTK [1] it was 99.7%; at FGR, 0%; at SRC (SRC, 1000 nM), 33%; at YES, 6%; on HCK, 21%. Also, the inhibition at 1 µM came out at 5% at FYN, 0% at LCK, 23% at EGFR and 7% on LYN. For the same compound, the “Fold Difference” value at SRC (BTK vs SRC) is given as over 100x. In addition, the IC50 at BTK [2] (unit not printed in Table 2, read-out: BTK in vitro potency) is 4.7 nM. In addition, on BTK [2] (in vitro BTK potency), the “improvement in potency over Analogs 1 and 2” value was about 100 ×.
